# Measurements published in ChEMBL document CHEMBL1201862, “PubChem BioAssay data set” (2004).
# The source made the active and inactive calls.
# Key:
# [1] = molecular target: Eukaryotic translation initiation factor 4E (Mus musculus, UniProt P63073); test: blockers of eIF4G binding by eIF4E – biochemical, TR-FRET, dose response (AID 855); format: functional;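 note: potency for disrupting eIF4E binding to eIF4GI seen as loss of FRET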
# [2] = molecular target: Dual specificity tyrosine-phosphorylation-regulated kinase 1A (Rattus norvegicus, UniProt Q63470); format: biochemical, Homo sapiens
# Protein RecA = molecular target: T1, Protein RecA (Mycobacterium tuberculosis, UniProt P9WHJ3); test: Fluorescence Cell-Free Homogeneous Dose Retest to Identify Inhibitors of RecA-Intein Splicing Activity. [Related pubchem assays (depositor defined):AID2097, AID2223, AID489010, AID492950]; format: functional
# T1 sequence (P9WHJ3 whole entry): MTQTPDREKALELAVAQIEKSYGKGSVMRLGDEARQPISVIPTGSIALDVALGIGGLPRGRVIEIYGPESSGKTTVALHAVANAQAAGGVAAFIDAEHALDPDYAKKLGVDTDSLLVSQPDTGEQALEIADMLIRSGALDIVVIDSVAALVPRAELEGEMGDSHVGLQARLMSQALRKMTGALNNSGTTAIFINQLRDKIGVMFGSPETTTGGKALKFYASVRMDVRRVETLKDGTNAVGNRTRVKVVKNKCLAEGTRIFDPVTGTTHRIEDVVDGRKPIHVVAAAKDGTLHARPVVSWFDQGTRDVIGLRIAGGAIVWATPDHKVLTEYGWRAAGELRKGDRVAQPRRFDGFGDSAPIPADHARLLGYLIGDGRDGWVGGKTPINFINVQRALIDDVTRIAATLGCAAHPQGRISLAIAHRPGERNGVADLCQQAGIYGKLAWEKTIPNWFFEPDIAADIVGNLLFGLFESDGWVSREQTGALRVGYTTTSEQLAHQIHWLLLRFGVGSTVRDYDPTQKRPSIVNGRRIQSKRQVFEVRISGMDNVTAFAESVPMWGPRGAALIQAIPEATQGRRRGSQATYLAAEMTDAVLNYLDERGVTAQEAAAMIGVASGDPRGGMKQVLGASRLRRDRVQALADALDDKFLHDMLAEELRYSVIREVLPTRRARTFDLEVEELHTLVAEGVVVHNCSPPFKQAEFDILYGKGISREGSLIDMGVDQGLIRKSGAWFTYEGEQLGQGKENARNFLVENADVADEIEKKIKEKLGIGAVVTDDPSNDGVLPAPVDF
# Large T antigen = Large T antigen (Simian virus 40, UniProt P03070); format: functional, Betapolyomavirus macacae;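 note: Confirmatory-stage PubChem screen for compounds that inhibit SV40 T antigen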
# Large T antigen, sequence (P03070 whole entry): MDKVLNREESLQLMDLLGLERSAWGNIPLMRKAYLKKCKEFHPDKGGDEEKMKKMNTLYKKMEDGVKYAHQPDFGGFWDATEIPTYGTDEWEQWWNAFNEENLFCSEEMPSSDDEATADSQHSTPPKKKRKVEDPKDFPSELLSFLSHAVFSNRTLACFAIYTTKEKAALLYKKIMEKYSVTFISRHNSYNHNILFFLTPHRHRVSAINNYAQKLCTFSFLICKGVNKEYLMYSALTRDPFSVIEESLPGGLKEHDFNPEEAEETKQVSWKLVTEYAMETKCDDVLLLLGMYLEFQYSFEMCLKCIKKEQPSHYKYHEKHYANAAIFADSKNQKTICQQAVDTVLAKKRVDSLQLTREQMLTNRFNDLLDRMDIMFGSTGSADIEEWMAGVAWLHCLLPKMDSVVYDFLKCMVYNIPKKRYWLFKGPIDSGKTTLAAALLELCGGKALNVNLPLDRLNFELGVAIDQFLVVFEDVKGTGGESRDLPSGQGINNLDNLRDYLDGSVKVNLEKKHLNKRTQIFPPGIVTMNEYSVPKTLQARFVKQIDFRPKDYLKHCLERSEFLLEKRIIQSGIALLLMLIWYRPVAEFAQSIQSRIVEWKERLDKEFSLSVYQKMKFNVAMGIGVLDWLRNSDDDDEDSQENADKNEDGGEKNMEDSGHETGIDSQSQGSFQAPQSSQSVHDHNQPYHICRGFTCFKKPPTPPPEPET
# [3] = molecular target: T2, Replicative DNA helicase DnaB (Mycobacterium tuberculosis, UniProt P9WMR3); test: DnaB intein splicing inhibitors, dose response, biochemical, cell-free fluorescence (AID 449749); format: functional
# T2 sequence (P9WMR3 whole entry): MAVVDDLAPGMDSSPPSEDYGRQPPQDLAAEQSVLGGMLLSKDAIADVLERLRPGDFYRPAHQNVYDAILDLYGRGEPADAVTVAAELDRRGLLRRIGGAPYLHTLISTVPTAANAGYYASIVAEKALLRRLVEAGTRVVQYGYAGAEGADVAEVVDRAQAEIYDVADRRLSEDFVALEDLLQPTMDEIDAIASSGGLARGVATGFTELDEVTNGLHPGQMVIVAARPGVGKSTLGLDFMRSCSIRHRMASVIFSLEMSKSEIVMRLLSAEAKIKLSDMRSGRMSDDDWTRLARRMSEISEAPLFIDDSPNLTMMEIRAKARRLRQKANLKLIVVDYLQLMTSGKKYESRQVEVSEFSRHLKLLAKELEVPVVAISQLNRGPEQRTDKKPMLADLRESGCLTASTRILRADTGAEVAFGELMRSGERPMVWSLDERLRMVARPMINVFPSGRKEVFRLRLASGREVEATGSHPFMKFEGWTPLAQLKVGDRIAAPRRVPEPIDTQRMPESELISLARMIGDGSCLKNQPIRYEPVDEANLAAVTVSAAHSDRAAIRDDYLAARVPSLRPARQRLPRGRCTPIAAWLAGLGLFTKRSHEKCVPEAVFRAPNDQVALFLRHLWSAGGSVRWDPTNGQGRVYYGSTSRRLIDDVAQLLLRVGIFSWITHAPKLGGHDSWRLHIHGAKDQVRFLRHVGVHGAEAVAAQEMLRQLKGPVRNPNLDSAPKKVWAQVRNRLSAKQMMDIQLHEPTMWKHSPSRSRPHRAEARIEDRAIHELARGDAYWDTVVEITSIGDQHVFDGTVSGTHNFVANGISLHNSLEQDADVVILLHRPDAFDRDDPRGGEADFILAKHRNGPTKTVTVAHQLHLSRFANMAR
# Leucine aminopeptidase = molecular target: T3, Leucine aminopeptidase (Plasmodium falciparum 3D7, UniProt Q8IL11); test: P. falciparum M17LAP inhibitors, primary screen, biochemical, fluorogenic H-Leu-NHMec substrate, 1536-well (AID 1619); format: functional
# T3 sequence (Q8IL11 whole entry): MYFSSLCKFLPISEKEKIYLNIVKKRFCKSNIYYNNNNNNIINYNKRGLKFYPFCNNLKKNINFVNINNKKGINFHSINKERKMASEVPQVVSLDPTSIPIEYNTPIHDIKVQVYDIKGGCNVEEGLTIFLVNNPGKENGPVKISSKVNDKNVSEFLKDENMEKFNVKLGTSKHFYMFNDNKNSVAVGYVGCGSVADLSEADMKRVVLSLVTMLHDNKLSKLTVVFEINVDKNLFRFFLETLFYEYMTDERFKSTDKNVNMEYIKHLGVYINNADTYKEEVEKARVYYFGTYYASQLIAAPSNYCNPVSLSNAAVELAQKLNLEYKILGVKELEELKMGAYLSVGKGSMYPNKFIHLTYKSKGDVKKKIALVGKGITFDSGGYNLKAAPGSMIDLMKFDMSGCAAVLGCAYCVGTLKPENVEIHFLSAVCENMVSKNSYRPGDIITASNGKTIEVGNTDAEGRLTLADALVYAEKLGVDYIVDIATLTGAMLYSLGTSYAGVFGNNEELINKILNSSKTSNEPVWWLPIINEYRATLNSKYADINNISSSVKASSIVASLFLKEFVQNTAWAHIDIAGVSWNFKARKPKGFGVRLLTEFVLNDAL
# [4] = viability of uninfected HEp-2 cells – cell-based, HTS, cytotoxicity control for RSV inhibitor project, dose response (AID 2410); format: functional; settings: human respiratory syncytial virus
# Vero [5] = test: cells; format: functional, cell-based; settings: Chlorocebus sabaeus
# cells [6] = test: cells
# [7] = molecular target: T4, Calpain-2 catalytic subunit (Sus scrofa, UniProt P43367); test: m-calpain protease blockers, concentration series – biochemical, fluorogenic peptide substrate, dose response (AID 1420); format: functional
# T4 sequence (P43367 whole entry): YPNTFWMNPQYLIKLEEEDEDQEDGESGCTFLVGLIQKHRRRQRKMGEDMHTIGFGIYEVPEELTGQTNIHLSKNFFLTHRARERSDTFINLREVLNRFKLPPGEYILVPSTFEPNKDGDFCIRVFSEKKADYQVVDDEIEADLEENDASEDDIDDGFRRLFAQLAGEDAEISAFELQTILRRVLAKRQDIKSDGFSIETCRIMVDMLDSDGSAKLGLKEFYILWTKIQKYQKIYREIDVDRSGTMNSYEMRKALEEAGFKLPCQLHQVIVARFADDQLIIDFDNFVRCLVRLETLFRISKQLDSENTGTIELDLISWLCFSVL
# Escherichia coli = test: microbe, parasite or virus in culture
# Vero [8] = test: cells; format: functional; settings: Chlorocebus sabaeus
# Aminopeptidase N = molecular target: T5, Aminopeptidase N (Plasmodium falciparum FcB1/Columbia, UniProt O96935); test: malaria alanyl aminopeptidase activity blockers – biochemical, fluorogenic H-Leu-NHMec substrate, 1536-well (AID 1445); set-up: species or system Plasmodium falciparum 3D7, 3D7
# T5 sequence (O96935 whole entry): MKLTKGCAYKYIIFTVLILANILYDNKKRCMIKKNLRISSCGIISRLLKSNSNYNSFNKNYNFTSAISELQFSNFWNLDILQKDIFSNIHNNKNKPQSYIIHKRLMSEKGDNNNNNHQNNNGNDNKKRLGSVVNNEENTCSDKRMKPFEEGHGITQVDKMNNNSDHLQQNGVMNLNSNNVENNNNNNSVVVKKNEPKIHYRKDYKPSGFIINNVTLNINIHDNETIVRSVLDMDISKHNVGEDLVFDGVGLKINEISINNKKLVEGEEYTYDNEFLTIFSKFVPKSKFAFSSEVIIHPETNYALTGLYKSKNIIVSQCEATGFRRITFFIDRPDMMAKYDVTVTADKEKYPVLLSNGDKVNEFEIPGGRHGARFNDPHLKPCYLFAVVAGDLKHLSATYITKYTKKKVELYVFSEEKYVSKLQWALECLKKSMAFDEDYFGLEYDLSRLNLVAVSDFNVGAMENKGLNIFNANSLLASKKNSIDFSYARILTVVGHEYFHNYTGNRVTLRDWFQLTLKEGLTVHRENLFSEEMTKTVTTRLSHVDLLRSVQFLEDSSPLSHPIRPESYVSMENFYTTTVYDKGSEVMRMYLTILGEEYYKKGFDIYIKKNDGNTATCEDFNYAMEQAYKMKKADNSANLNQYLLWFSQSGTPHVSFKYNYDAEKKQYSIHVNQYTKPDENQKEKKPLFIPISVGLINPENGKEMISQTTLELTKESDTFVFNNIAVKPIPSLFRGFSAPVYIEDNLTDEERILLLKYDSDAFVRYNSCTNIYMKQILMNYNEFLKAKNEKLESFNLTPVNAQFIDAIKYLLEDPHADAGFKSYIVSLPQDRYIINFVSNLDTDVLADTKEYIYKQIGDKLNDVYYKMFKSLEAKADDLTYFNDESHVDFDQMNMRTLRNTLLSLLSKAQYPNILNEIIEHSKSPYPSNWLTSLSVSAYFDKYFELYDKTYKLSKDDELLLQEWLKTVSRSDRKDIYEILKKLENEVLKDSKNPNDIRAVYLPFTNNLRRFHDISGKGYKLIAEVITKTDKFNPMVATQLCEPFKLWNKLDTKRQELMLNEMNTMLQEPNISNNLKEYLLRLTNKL
# BJ [9] = test: BJ-TERT-LT-ST fibroblast viability loss – cell-based, RAS-independent, luminescence, dose response (AID 1935); format: functional; settings: Homo sapiens;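 note: BJ fibroblasts immortalized with TERT plus LT and ST oncogenes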
# BJ [10] = test: cells; format: functional, cell-based, Homo sapiens; settings: Homo sapiens, BJ
# [11] = DRD fibroblast viability loss – cell-based, non-viral oncogenic, luminescence, dose response (AID 1934); format: functional; settings: Homo sapiens
# BJ [12] = test: BJ-TERT fibroblast viability loss – cell-based, RAS-independent, luminescence, dose response (AID 1933); format: functional; settings: Homo sapiens
# [13] = HEK-293T viability loss after treatment – luminescence, T-cell screen hits, cytotoxicity control for TCR NF-kB inhibitor project, dose response (AID 489026); format: functional, cell-based;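 note: cells exposed to compound about 14 hours before the viability readout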
# HEK293 = test: EBV LMP1 TES2 canonical NF-kB signalling blockers – cell-based, HEK293, luciferase, cherry-pick, dose response (AID 588343); format: functional; settings: Homo sapiens
# [14] = fluconazole-exposed Candida albicans growth modulators – fluorescence, retest, confirmation (AID 2467); format: functional, cell-based
# [15] = NIH-3T3 fibroblast cytotoxicity, dose response, cytotoxicity control, cell-based, fluorescence, Alamar Blue, secondary assay (AID 2327); format: functional;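 note: NIH-3T3 mouse fibroblasts cultured with fluconazole at 8 µg/mL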
# cells [16] = format: functional, cell-based
# cells [17] = format: functional, cell-based; remark: listed apart in the source
# INS1 = test: INS-1E survival protection against cytokine death – cell-based, luminescence, retest, dose response (AID 449756); format: functional; settings: Rattus norvegicus;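 note: cell death triggered by IL-1 beta plus TNF-alpha plus IFN-gamma mixture; protective hits raise ATP signal compared with cytokine alone wells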
# Eukaryotic translation initiation factor 4E, sequence (P63073 whole entry): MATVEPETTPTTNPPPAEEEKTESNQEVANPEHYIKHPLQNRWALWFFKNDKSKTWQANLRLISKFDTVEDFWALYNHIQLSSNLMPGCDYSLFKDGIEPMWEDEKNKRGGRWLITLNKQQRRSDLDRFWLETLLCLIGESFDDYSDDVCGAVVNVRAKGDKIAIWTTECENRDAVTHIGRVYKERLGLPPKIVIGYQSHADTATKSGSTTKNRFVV
compound,measurement,setting,value
COc1cc(-c2[nH]ncc2CN2CCN(Cc3cccs3)CC2)cc(OC)c1OC,IC50,[1],50 µM (inactive)
COc1cc(C=C2C(=O)c3ccccc3C2=O)ccc1O,AC50,[2],0.585 µM (active)
same,EC50,Protein RecA,22.9 µM (active)
same,IC50,Large T antigen,15.1 µM (active)
same,AC50,[3],> 380 µM (inactive)
Cc1ccc(C(C)C)c(OCc2nc(-c3nonc3N)no2)c1,IC50,[1],> 64 µM (inactive)
O=C(CSc1nnc[nH]1)Nc1ccc2c(c1)OCCO2,IC50,Leucine aminopeptidase,64.9 µM (active)
CCOC(=O)Cn1c(-c2nonc2NC(=O)c2ccccc2F)nc2ccccc21,CC50,[4],> 6.25 µM (active)
same,IC50,Vero [5],0.98 µM (active)
same,IC50,cells [6],4.57 µM (active)
CC(C)N(C(=O)c1sc2cc([N+](=O)[O-])ccc2c1Cl)C(C)C,IC50,[7],1.98 µM (not active)
Cc1ccccc1NC(=O)CCN1CCN(CCO)CC1,AC50,Escherichia coli,23.6 µM (active)
Cc1cnc(NC(=O)COc2cccc3c2OC(C)(C)C3)s1,CC50,[4],30.2 µM (active)
same,IC50,Vero [5],13 µM (active)
same,IC50,cells [6],22.2 µM (active)
same,CC50,Vero [8],> 25 µM (active)
CC(=O)c1cccc(NC(=O)c2nc(-c3ccccc3)oc2C)c1,IC50,[1],50 µM (inactive)
O=C(O)Cn1cc(/C=C2/SC(=O)N(CC(=O)N3CCCCCC3)C2=O)c2ccccc21,IC50,Aminopeptidase N,82.3 µM (active)
Cc1cccc(C)c1NC(=O)CSc1ncnc2nc[nH]c12,IC50,Leucine aminopeptidase,39.9 µM (active)
CCOC(=O)C1=C(NC(=S)NC(=O)c2ccccc2)c2ccccc2CC1C(C)C (stereo unspecified),EC50,BJ [9],> 150 µM (not active)
same,CC50,[4],9.61 µM (active)
same,IC50,Vero [5],9.18 µM (active)
same,EC50,BJ [10],54.1 µM (inconclusive)
same,IC50,cells [6],3.58 µM (active)
same,EC50,[11],60.6 µM (active)
same,CC50,Vero [8],> 25 µM (active)
same,EC50,BJ [12],> 150 µM (not active)
Cc1c(Cl)cccc1NC(=O)CCC(=O)NNC(=O)c1ccccc1Cl,IC50,[1],> 64 µM (inactive)
CCn1ncc(C2=NOC(C(=O)NCc3ccc(Cl)cc3)C2)c1C (stereo unspecified),IC50,[13],> 80 µM (inactive)
CC1CC(=O)N(CC(=O)Nc2ccc3c(c2)OCO3)c2ccccc2S1 (stereo unspecified),IC50,Leucine aminopeptidase,21.9 µM (active)
COc1ccccc1N1CCN(C(=O)CSc2nc(-c3ccccc3)cc(=O)[nH]2)CC1,IC50,Leucine aminopeptidase,16 µM (active)
Cc1ccc(C(C(=O)NC2CCCC2)N(C(=O)Cc2cccs2)c2ccc(C)c(C)c2)o1 (stereo unspecified),IC50,[7],10.9 µM (not active)
COc1cccc(/C=N/NC(=O)c2[nH]nc3c2CCc2ccccc2-3)c1O,AC50,HEK293,5.71 µM (active)
same,EC50,[14],1.49 µM (active)
same,EC50,[15],9.81 µM (active)
same,EC50,cells [16],> 350 µM (not active)
same,EC50,cells [17],9.85 µM (active)
same,AC50,INS1,0.796 µM (active)
same,IC50,[13],54 µM (inactive)
c1ccc2c(-c3ccncc3)c[nH]c2c1,AC50,HEK293,144 µM (active)
same,AC50,[2],2.41 µM (active)
